Consider 31 molecules from US4673684A, “Amide derivatives and 5-lipoxygenase inhibitors containing the same as an active ingredient” (Terumo Corporation, priority 1984, dated 1987).

Molecules are shown by their SMILES.

The target in this test is T1, 5-lipoxygenase (Mus musculus, UniProt P48999).
T1 construct: The supernatant is used as a 5-lipogenase enzyme solution; endogenous in cells
T1 sequence (P48999 1-674): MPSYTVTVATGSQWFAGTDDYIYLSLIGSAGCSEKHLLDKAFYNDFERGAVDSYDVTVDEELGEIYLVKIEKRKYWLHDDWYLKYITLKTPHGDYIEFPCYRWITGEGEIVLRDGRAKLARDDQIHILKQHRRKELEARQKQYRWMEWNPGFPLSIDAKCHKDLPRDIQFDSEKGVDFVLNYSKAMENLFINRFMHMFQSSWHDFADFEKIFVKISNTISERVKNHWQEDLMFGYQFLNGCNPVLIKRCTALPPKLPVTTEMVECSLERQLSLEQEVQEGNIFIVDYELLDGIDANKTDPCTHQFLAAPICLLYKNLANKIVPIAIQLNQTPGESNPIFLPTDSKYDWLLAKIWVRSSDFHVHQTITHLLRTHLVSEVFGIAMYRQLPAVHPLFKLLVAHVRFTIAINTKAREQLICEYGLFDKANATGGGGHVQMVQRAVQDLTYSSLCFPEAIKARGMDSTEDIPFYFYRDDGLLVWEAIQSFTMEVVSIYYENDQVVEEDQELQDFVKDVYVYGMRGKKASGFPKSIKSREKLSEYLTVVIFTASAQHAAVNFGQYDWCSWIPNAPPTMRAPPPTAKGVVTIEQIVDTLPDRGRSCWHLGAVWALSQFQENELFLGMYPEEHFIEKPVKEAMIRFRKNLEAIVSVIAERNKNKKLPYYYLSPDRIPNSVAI
The test is described as follows: 5-Lipoxygenase-inhibiting Activity (decrease in 5-HETE and LTB4 formed from radiolabelled arachidonic acid, enzyme solution from mouse mastcytoma cells P-815). In kind it is biochemical. The following applies: 5-HETE and LTB4 formation; mouse mastcytoma P-815 enzyme solution; 37° C., 5 min; pH 7.4; with indomethacin; read-out: 50% Inhibitory concentration IC50. The procedure: Mouse mastcytoma cells P-815 are diluted in a culture solution, containing 90% Eagle Basic Medium (manufactured by Gibco Laboratories) to 5×10^4 cells/ml. The diluted solution is cultivated with shaking in air at 37° C. for 48 hours. Then, the culture solution is cooled with ice and centrifuged to collect the cells. The cells are suspended in a phosphate buffer solution at pH 7.4 at a concentration of 2×10^7 cells/ml. The suspension is treated in a ultrasonic cell disintegrater and then centrifuged at 10,000 r.p.m. for 10 min. The supernatant is used as a 5-lipogenase enzyme solution. In test tubes are placed 20 μl of radiolabelled arachidonic acid ([…]), indomethacin (2×10^-8 mol) and an amide derivative to be tested, respectively. To each of the test tubes are added 0.45 ml of a phosphate buffer solution, 0.45 ml of the above-prepared suspension, 0.45 ml of the above-prepared enzyme solution and 0.1 ml of 8 mM CaCl2 (calcium chloride). The mixture is reacted at 37° C. for 5 min. After cooled with ice, 60 μl of 1N-HCl (hydrochloric acid is added to the reaction mixture, which is then extracted with 8 ml of ethyl acetate. The extract is concentrated, and the concentrate is developed by spotting on a silica gel thin layer plate (Merck 60F 254). Measurement of the inhibitory activity is made by collecting fractions corresponding to lipoxygenase products 5-HETE (5(s)-hydroxy-6,8,11,14-eicosatetraenic acid) and LTB4 (leucotriene B4) and determining the radioactivity by a liquid scintillation counter. The lipoxygenase inhibiting activity is determined by decrease in the amount of the above-mentioned 5-lipoxygenaseproducts. […] 50% inhibitory concentration or 30% inhibitory concentration as indicated in the table means the concentration of an amide derivative required for reducing the amount of the above-mentioned 5-lipoxygenase products (5-HETE and LTB4) to 50% or 30% of the amount when the amount of 5-HETE and LTB4 produced in the absenced of the amide derivative is 100%.
With `COc1cc(/C=C/C=C/C(=O)NCCCN2CCN(C(c3ccccc3)c3ccccc3)CC2)ccc1O` [Example 38, N-[3-[5-(3-methoxy-4-hydroxyphenyl)-2,4-pentadienoyl]aminopropyl]-N'-benzhydrylpiperazine], the IC50 stood at 200 nM. The figure for `COc1cc(/C=C/C=C/C(=O)NCCCN2CCN(C(c3ccccc3)c3ccc(Cl)cc3)CC2)ccc1O` (stereo not shown) [Example 39, N-(p-chlorobenzhydryl)-N'-[3-{5-(3-methoxy-4-hydroxyphenyl)-2,4-pentadienoyl)aminopropyl]piperazine] is 100 nM; for `COc1cc(/C=C/C=C/C(=O)NCCN2CCN(C)CC2)ccc1O` [Example 40] it is 10000 nM. With `COc1cc(/C=C/C=C/C(=O)NCc2c(COC(=O)c3ccc(C)cc3)cnc(C)c2O)ccc1O` [Example 41, 4-[5-(3-methoxy-4-hydroxyphenyl)-2,4-pentadienoyl]-aminomethyl-3-hydroxy-2-methyl-5-toluoxymethylpyridine] the figure was 200 nM. With `COc1cc(/C=C/C=C/C(=O)NCCN2CCN(C(=O)c3ccccc3N)CC2)ccc1O` [Example 42, N-(o-aminobenzoyl)-N'-[{5-(3-methoxy-4-hydroxyphenyl)-2,4-pentadienoyl}aminoethyl]piperazine] the figure was 2000 nM; with `COc1cc(/C=C/C=C/C(=O)NCCCCNC(=O)c2ccccc2N)ccc1O` [Example 43, N-5-(3-methoxy-4-hydroxy)phenyl-2,4-pentadienoyl-N'-(2-amino)-benzoyl putrescine], 300 nM. On to `O=C(/C=C/C=C/c1ccc(O)c(O)c1)NCCCN1CCN(C(c2ccccc2)c2ccccc2)CC1` [Example 44, N-benzhydryl-N'-[[5-{3,4-dihydroxyphenyl)-2,4-pentadienoyl}aminopropyl]piperazine], for which the IC50 is 80 nM. The figure for `O=C(/C=C/C=C/c1ccc(O)c(O)c1)NCCCN1CCN(C(c2ccccc2)c2ccc(Cl)cc2)CC1` (stereo not shown) [Example 45, N-(p-chlorobenzhydryl)-N'-[{5-(3,4-dihydroxyphenyl)-2,4-pentadienoyl}-aminopropyl]piperazine] is 60 nM. On to `Cc1ccc(C(=O)OCc2cnc(C)c(O)c2CNC(=O)/C=C/C=C/c2ccc(O)c(O)c2)cc1` [Example 46], for which the IC50 is 80 nM. For `COc1ccc(/C=C/C=C/C(=O)NCCCN2CCN(C(c3ccccc3)c3ccccc3)CC2)cc1OC` [Example 47, N-[3-[5-(3,4-dimethoxyphenyl)-2,4-pentadienoyl]-aminopropyl]-N'-benzhydrylpiperazine], the IC50 came to 4000 nM.

With `COc1ccc(/C=C/C=C/C(=O)NCCN2CCN(C(=O)c3ccccc3N)CC2)cc1OC` [Example 48, N-(o-aminobenzoyl)-N'-[{5-(3,4-dimethoxyphenyl)-2,4-pentadienoyl}aminoethyl]piperazine], the IC50 was 6000 nM. The figure for `COc1cc(/C=C/C(=O)NCCN2CCN(C(c3ccccc3)c3ccc(Cl)cc3)CC2)cc(OC)c1O` (stereo not shown) [Example 49] is 40 nM; for `COc1cc(/C=C/C(=O)NCc2c(CO)cnc(C)c2O)cc(OC)c1O` [Example 50, 4-[3-(3,5-dimethoxy-4-hydroxyphenyl)-2-propenoyl]aminomethyl-3-hydroxy-5-hydroxymethyl-2-methylpyridine] it is 6000 nM; for `COc1cc(/C=C/C(=O)Nc2ccccc2C(=O)O)cc(OC)c1O` [Example 51, N-[3-(3,5-dimethox-4-hydroxyphenyl)propenoyl]anthranilic acid] it is 1000 nM. With `COc1cc(/C=C/C(=O)NCCN2CCN(C(c3ccccc3)c3ccccc3)CC2)cc(OC)c1OC` [Example 52, N-benzhydryl-N'-[3-(3',4',5'-trimethoxy)phenyl-2-propenoyl]aminoethylpiperazine] the figure was 10000 nM. The figure for `COc1cc(/C=C/C=C/C(=O)NCCN2CCN(C(c3ccccc3)c3ccccc3)CC2)cc(OC)c1O` [Example 53, N-[2-[5-(3,5-dimethoxy-4-hydroxyphenyl)-2,4-pentadienoyl]aminoethyl]-N'-benzhydrylpiperazine] is 20 nM. Consider `COc1cc(/C=C/C=C/C(=O)NCCN2CCN(C(c3ccccc3)c3ccc(Cl)cc3)CC2)cc(OC)c1O` (stereo not shown) [Example 54, N-(p-chlorobenzhydryl)-N'-[2-{5-(3,5-dimethoxy-4-hydroxyphenyl)-2,4-pentadienoyl}aminoethyl]piperazine], for which the IC50 was 20 nM.

In the case of `COc1cc(/C=C/C=C/C(=O)NCCCN2CCN(C(c3ccccc3)c3ccccc3)CC2)cc(OC)c1O` [Example 55], the IC50 stood at 30 nM. The figure for `COc1cc(/C=C/C=C/C(=O)NCc2c(CO)cnc(C)c2O)cc(OC)c1O` [Example 56, 4-[5-(3,5-dimethoxy-4-hydroxyphenyl)-2,4-pentadineoyl]aminomethyl-3-hydroxy-5-hydroxymethyl-2-methylpyridine] is 1000 nM; for `COc1cc(/C=C/C=C/C(=O)Nc2ccccc2C(=O)O)cc(OC)c1O` [Example 57, N-{5-(3,5-dimethoxy-4-hydroxyphenyl)-2,4-pentadienoyl}anthranilic acid] it is 400 nM; for `COc1cc(/C=C/C=C/C(=O)NCc2c(COC(=O)c3ccc(C)cc3)cnc(C)c2O)cc(OC)c1OC(=O)c1ccc(C)cc1` [Example 58, 4-{5-(3,5-dimethoxy-4-toluoxyphenyl)-2,4-pentadienoyl}aminomethyl-3-hydroxy-2methyl-5-toluoxymethylpyridine] it is 3000 nM. On to `COc1cc(/C=C/C=C/C(=O)NCCN2CCN(C(c3ccccc3)c3ccccc3)CC2)cc(OC)c1OC` [Example 59, N-[2-[5-(3,4,5-trimethoxyphenyl)-2,4-pentadienoyl]aminoethyl]-N'-benzhydrylpiperazine], for which the IC50 worked out at 2000 nM. With `COc1cc(/C=C/C=C/C(=O)NCc2c(CO)cnc(C)c2O)cc(OC)c1OC` [Example 60, 4-[5-(3,4,5-trimethoxyphenyl)-2,4-pentadienoyl]aminomethyl-3-hydroxy-5-hydroxymethyl-2-methylpyridine] the figure was 100000 nM; with `O=C(/C=C/C=C/c1ccc2c(c1)OCO2)NCCN1CCN(C(c2ccccc2)c2ccccc2)CC1` [Example 61, N-[2-[5-(3,4-methylenedioxyphenyl)-2,4-pentadienoyl]aminoethyl]-N'-benzhydrylpiperazine], 3000 nM; with `O=C(/C=C/C=C/c1ccc2c(c1)OCO2)NCCCN1CCN(C(c2ccccc2)c2ccccc2)CC1` [Example 62, N-[3-[5-(3,4,-methylenedioxyphenyl)-2,4-pentadienoyl]aminopropyl]-N'-benzhydrylpipeerazine], 2000 nM.

Consider `O=C(/C=C/c1ccc(O)c(O)c1)NCCCCN1CCN(C(c2ccccc2)c2ccc(Cl)cc2)CC1` (stereo not shown) [Example 63], for which the IC50 came to 50 nM. Take `O=C(/C=C/c1ccc(O)c(O)c1)NCCCCN1CCN(C(c2ccccc2)c2ccccc2)CC1` [Example 64, N-[4-[3-,4-(3,4-dihydroxyphenyl)-2-propenoyl]aminobutyl]N'-benzhydrylpiperazine]: the IC50 came to 30 nM. The figure for `Cn1c(=O)c2c(ncn2CCNC(=O)/C=C/c2ccc(O)c(O)c2)n(C)c1=O` [Example 65, 7-[2-[3-(3,4-dihydroxy)phenyl-2-propenoyl]aminoethyl]theophilline] is 2000 nM. With `O=C(/C=C/c1ccc(O)c(O)c1)N1CCN(CCOC(c2ccccc2)c2ccccc2)CC1` [Example 66, N-[3-(3,4-dihydroxyphenyl)-2-propenoyl]-N'-(2-benzhydroxyethyl)] the figure was 30 nM. The figure for `O=C(/C=C/c1ccc(O)c(O)c1)NCCOC(c1ccccc1)c1ccccc1` [Example 67, 2-[3-(3,4-dihydroxy)phenyl-2-propenoyl]aminoethyl benzhydryl ether] is 30 nM. Consider `COc1cc(/C=C/C(=O)NCCCCN2CCN(C(c3ccccc3)c3ccccc3)CC2)ccc1O` [Example 68], for which the IC50 was found to be 40 nM.
